Experimental data reported in ChEMBL document CHEMBL2401682, “Evaluation of Jatropha isabelli natural products and their synthetic analogs as potential antimalarial therapeutic agents” (Eur J Med Chem, 2013).

The compounds below were run on HEK293 (assay: Cytotoxicity against HEK293 cells after 72 hrs by celltiter-glo assay). Settings: Homo sapiens, HEK293, 72 h.
Type: cell-based

SMILES	EC50 [µM]
CC1=C2CC(C)(C)/C=C/[C@H](O)/C(C)=C\C3=C[C@H](C)C[C@]3(O2)C1=O	26
CC(=O)O[C@H]1/C=C/C(C)(C)CC2=C(C)C(=O)[C@]3(C[C@@H](C)C=C3/C=C\1C)O2	26
CC1=C2CC(C)(C)/C=C/[C@@H](O)/C(C)=C\C3=C[C@H](C)C[C@]3(O2)C1=O	26
CC(=O)O[C@@H]1/C=C/C(C)(C)CC2=C(C)C(=O)[C@]3(C[C@@H](C)C=C3/C=C\1C)O2	26
CC(=O)O[C@H]1/C=C/C(C)(C)CC2=C(C)[C@@H](OC(C)=O)[C@]3(C[C@@H](C)C=C3/C=C\1C)O2	26
CC1=C2CC(C)(C)/C=C/[C@H](OC(=S)n3ccnc3)/C(C)=C\C3=C[C@H](C)C[C@]3(O2)C1=O	26
CC1=C2CC(C)(C)/C=C/[C@H](OC(=S)Sc3ccccc3)/C(C)=C\C3=C[C@H](C)C[C@]3(O2)C1=O	26
C/C1=C/C2=C[C@H](C)C[C@@]23O[C@]2(CC(C)(C)C[C@@H]2[C@@H]1OC(=S)Sc1ccccc1)[C@@H](C)C3=O	17.8
C/C1=C/C2=C[C@H](C)C[C@@]23O[C@]2(CC(C)(C)[C@@H](Br)[C@@H]2C1=O)[C@](C)(Br)C3=O	26

What follows are compounds tested on BJ (assay: Cytotoxicity against human BJ cells after 72 hrs by celltiter-glo assay). Settings: not given.
Type: cell-based

SMILES	EC50 [µM]
CC1=C2CC(C)(C)/C=C/[C@H](O)/C(C)=C\C3=C[C@H](C)C[C@]3(O2)C1=O	10.6
CC(=O)O[C@H]1/C=C/C(C)(C)CC2=C(C)C(=O)[C@]3(C[C@@H](C)C=C3/C=C\1C)O2	26
CC1=C2CC(C)(C)/C=C/[C@@H](O)/C(C)=C\C3=C[C@H](C)C[C@]3(O2)C1=O	26
CC(=O)O[C@@H]1/C=C/C(C)(C)CC2=C(C)C(=O)[C@]3(C[C@@H](C)C=C3/C=C\1C)O2	26
CC(=O)O[C@H]1/C=C/C(C)(C)CC2=C(C)[C@@H](OC(C)=O)[C@]3(C[C@@H](C)C=C3/C=C\1C)O2	26
CC1=C2CC(C)(C)/C=C/[C@H](OC(=S)n3ccnc3)/C(C)=C\C3=C[C@H](C)C[C@]3(O2)C1=O	26
CC1=C2CC(C)(C)/C=C/[C@H](OC(=S)Sc3ccccc3)/C(C)=C\C3=C[C@H](C)C[C@]3(O2)C1=O	26
C/C1=C/C2=C[C@H](C)C[C@@]23O[C@]2(CC(C)(C)C[C@@H]2[C@@H]1OC(=S)Sc1ccccc1)[C@@H](C)C3=O	26
C/C1=C/C2=C[C@H](C)C[C@@]23O[C@]2(CC(C)(C)[C@@H](Br)[C@@H]2C1=O)[C@](C)(Br)C3=O	26

The compounds below were run on HepG2 (assay: Cytotoxicity against human HepG2 cells after 72 hrs by celltiter-glo assay). Settings: HepG2, 72 h.
Type: cell-based

SMILES	EC50 [µM]
CC1=C2CC(C)(C)/C=C/[C@H](O)/C(C)=C\C3=C[C@H](C)C[C@]3(O2)C1=O	18.7
CC(=O)O[C@H]1/C=C/C(C)(C)CC2=C(C)C(=O)[C@]3(C[C@@H](C)C=C3/C=C\1C)O2	26
CC1=C2CC(C)(C)/C=C/[C@@H](O)/C(C)=C\C3=C[C@H](C)C[C@]3(O2)C1=O	26
CC(=O)O[C@@H]1/C=C/C(C)(C)CC2=C(C)C(=O)[C@]3(C[C@@H](C)C=C3/C=C\1C)O2	26
CC(=O)O[C@H]1/C=C/C(C)(C)CC2=C(C)[C@@H](OC(C)=O)[C@]3(C[C@@H](C)C=C3/C=C\1C)O2	26
CC1=C2CC(C)(C)/C=C/[C@H](OC(=S)n3ccnc3)/C(C)=C\C3=C[C@H](C)C[C@]3(O2)C1=O	26
CC1=C2CC(C)(C)/C=C/[C@H](OC(=S)Sc3ccccc3)/C(C)=C\C3=C[C@H](C)C[C@]3(O2)C1=O	26
C/C1=C/C2=C[C@H](C)C[C@@]23O[C@]2(CC(C)(C)C[C@@H]2[C@@H]1OC(=S)Sc1ccccc1)[C@@H](C)C3=O	26
C/C1=C/C2=C[C@H](C)C[C@@]23O[C@]2(CC(C)(C)[C@@H](Br)[C@@H]2C1=O)[C@](C)(Br)C3=O	26

The compounds below were run on Plasmodium falciparum (assay: Antimalarial activity against chloroquine-sensitive Plasmodium falciparum 3D7 infected in O-positive erythrocytes assessed as parasite growth inhibition after 72 hrs by DNA staining-based assay). Settings: 3D7, 72 h.
Type: functional, organism-based

SMILES	EC50 [µM]
CC1=C2CC(C)(C)/C=C/[C@H](O)/C(C)=C\C3=C[C@H](C)C[C@]3(O2)C1=O	9.23
CC(=O)O[C@H]1/C=C/C(C)(C)CC2=C(C)C(=O)[C@]3(C[C@@H](C)C=C3/C=C\1C)O2	3.2
CC1=C2CC(C)(C)/C=C/[C@@H](O)/C(C)=C\C3=C[C@H](C)C[C@]3(O2)C1=O	0.744
CC(=O)O[C@@H]1/C=C/C(C)(C)CC2=C(C)C(=O)[C@]3(C[C@@H](C)C=C3/C=C\1C)O2	1.63
CC(=O)O[C@H]1/C=C/C(C)(C)CC2=C(C)[C@@H](OC(C)=O)[C@]3(C[C@@H](C)C=C3/C=C\1C)O2	5.68
CC1=C2CC(C)(C)/C=C/[C@H](OC(=S)n3ccnc3)/C(C)=C\C3=C[C@H](C)C[C@]3(O2)C1=O	5.67
CC1=C2CC(C)(C)/C=C/[C@H](OC(=S)Sc3ccccc3)/C(C)=C\C3=C[C@H](C)C[C@]3(O2)C1=O	15
C/C1=C/C2=C[C@H](C)C[C@@]23O[C@]2(CC(C)(C)C[C@@H]2[C@@H]1OC(=S)Sc1ccccc1)[C@@H](C)C3=O	8.88
C/C1=C/C2=C[C@H](C)C[C@@]23O[C@]2(CC(C)(C)[C@@H](Br)[C@@H]2C1=O)[C@](C)(Br)C3=O	15

The compounds below were run on Plasmodium falciparum (assay: Antimalarial activity against chloroquine and pyrimethamine-resistant Plasmodium falciparum K1 infected in O-positive erythrocytes assessed as parasite growth inhibition after 72 hrs by DNA staining-based assay). Settings: K1, 72 h.
Type: functional, organism-based

SMILES	EC50 [µM]
CC1=C2CC(C)(C)/C=C/[C@H](O)/C(C)=C\C3=C[C@H](C)C[C@]3(O2)C1=O	15
CC(=O)O[C@H]1/C=C/C(C)(C)CC2=C(C)C(=O)[C@]3(C[C@@H](C)C=C3/C=C\1C)O2	15
CC1=C2CC(C)(C)/C=C/[C@@H](O)/C(C)=C\C3=C[C@H](C)C[C@]3(O2)C1=O	15
CC(=O)O[C@@H]1/C=C/C(C)(C)CC2=C(C)C(=O)[C@]3(C[C@@H](C)C=C3/C=C\1C)O2	15
CC(=O)O[C@H]1/C=C/C(C)(C)CC2=C(C)[C@@H](OC(C)=O)[C@]3(C[C@@H](C)C=C3/C=C\1C)O2	15
CC1=C2CC(C)(C)/C=C/[C@H](OC(=S)n3ccnc3)/C(C)=C\C3=C[C@H](C)C[C@]3(O2)C1=O	5.85
CC1=C2CC(C)(C)/C=C/[C@H](OC(=S)Sc3ccccc3)/C(C)=C\C3=C[C@H](C)C[C@]3(O2)C1=O	15
C/C1=C/C2=C[C@H](C)C[C@@]23O[C@]2(CC(C)(C)C[C@@H]2[C@@H]1OC(=S)Sc1ccccc1)[C@@H](C)C3=O	5.69
C/C1=C/C2=C[C@H](C)C[C@@]23O[C@]2(CC(C)(C)[C@@H](Br)[C@@H]2C1=O)[C@](C)(Br)C3=O	15

Each compound was assayed on Raji (assay: Cytotoxicity against human Raji cells after 72 hrs by celltiter-glo assay). Settings: not given.
Type: cell-based

SMILES	EC50 [µM]
CC1=C2CC(C)(C)/C=C/[C@H](O)/C(C)=C\C3=C[C@H](C)C[C@]3(O2)C1=O	26
CC(=O)O[C@H]1/C=C/C(C)(C)CC2=C(C)C(=O)[C@]3(C[C@@H](C)C=C3/C=C\1C)O2	26
CC1=C2CC(C)(C)/C=C/[C@@H](O)/C(C)=C\C3=C[C@H](C)C[C@]3(O2)C1=O	26
CC(=O)O[C@@H]1/C=C/C(C)(C)CC2=C(C)C(=O)[C@]3(C[C@@H](C)C=C3/C=C\1C)O2	26
CC(=O)O[C@H]1/C=C/C(C)(C)CC2=C(C)[C@@H](OC(C)=O)[C@]3(C[C@@H](C)C=C3/C=C\1C)O2	26
CC1=C2CC(C)(C)/C=C/[C@H](OC(=S)n3ccnc3)/C(C)=C\C3=C[C@H](C)C[C@]3(O2)C1=O	26
CC1=C2CC(C)(C)/C=C/[C@H](OC(=S)Sc3ccccc3)/C(C)=C\C3=C[C@H](C)C[C@]3(O2)C1=O	26
C/C1=C/C2=C[C@H](C)C[C@@]23O[C@]2(CC(C)(C)C[C@@H]2[C@@H]1OC(=S)Sc1ccccc1)[C@@H](C)C3=O	26
C/C1=C/C2=C[C@H](C)C[C@@]23O[C@]2(CC(C)(C)[C@@H](Br)[C@@H]2C1=O)[C@](C)(Br)C3=O	4.38
